Test results: PMC5697638, “Identification of a Potent Phosphoinositide 3‐Kinase Pan Inhibitor Displaying a Strategic Carboxylic Acid Group and Development of Its Prodrugs” (Chemmedchem, 2017)

Experiments:
[1] = stability in mouse plasma; type: in vitro ADME; conditions: 50 μM substrate; for half-life at 50 µM: mouse, mouse plasma, 30 min incubation, 37 °C, read-out: Mouse plasma t 1/2
Experimental: Twelve esters were prepared (see the Experimental Section for their synthesis and the Supporting Information for chromatographic methods) and evaluated in terms of metabolic stability. For this task, a combined approach based on microsomal and plasmatic stability assays was exploited considering the relevance of the plasmatic and hepatic tissues in esterase activity. Microsomal stability of the selected esters was evaluated by monitoring the disappearance of the substrate incubated in rat liver microsomes (RLM) at 50 μM concentration, in the presence of NADPH. In Table 4, the percentage of the remaining substrate, after incubation (t=60 min), with respect to the initial amount is reported. Overall, the compounds underwent a relevant metabolic transformation, and the substrate depletion ranged from 0 (for 76) to 100 % (for 70). This is mainly due to hydrolysis of the ester function, whereas the metabolites arising from the oxidation catalyzed by the NADPH‐dependent monooxygenase system were negligible from a quantitative point of view. Indeed, the main metabolite formed during the incubation of the esters was corresponding carboxyl derivative 37. […] Moreover, whereas CH2‐pyridin‐4‐yl ester 70 was completely metabolized, corresponding benzyl derivative 65 and piperonyl derivative 72 were more hydrolytically stable, and their residual substrates were 53 and 83 %, respectively. The hydrolytic stability of the selected esters was also evaluated by monitoring the depletion of the substrate incubated at a 50 μM concentration in mouse plasma over a period of 30 min. As expected, the plasmatic metabolic fate of the esters was characterized by the formation of 37 as the only metabolite (see Figure S4). The rate constant k [min^−1], derived for the substrate peak area versus time curve (single‐exponential decay equation—GraphPad Prism software, Inc., San Diego, CA (USA); see Figure S5) was used to calculate the in vitro half‐life t 1/2 [min], and the values are reported in Table 4. […]
Stability of PI3K inhibitors in mouse plasma
An aliquot of 460 µL of blank plasma spiked with substrate (50 µM, final concentration, DMSO 5%) was incubated at 37 °C for 30 minutes. Aliquots (70 µL) of the incubation took at 0-2-5-10-20, and 30 minutes were diluted with 140 µL of acetonitrile, homogenized, and centrifuged at 13,000 rpm for five minutes. Supernatants (20 µL) were injected onto HPLC.
(§1) A Shimadzu HPLC system (Shimadzu, Kyoto, Japan), consisting of two LC-10AD Vp module pumps, an SLC-10A Vp system controller, an SIL-10AD Vp autosampler, and a DGU-14-A on-line degasser was used for the analysis. All the chromatographic separations were performed on a Phenomenex Luna C18 5µm (150 x 4.6 mm i.d.) (Phenomenex srl, Castel Bolognese, Italy) as a stationary phase protected by a Luna C18 SecurityGuard (Phenomenex srl). The SPD-M10Avp photodiode array detector was used to detect the analyte at 254 nm. LC Solution 1.24 software was used to process the chromatograms. Aliquots (20 µL) of supernatants obtained from incubations were injected onto the HPLC system and eluted with a mobile phase (flow rate: 1 mL/min) consisting of solvent A- 0.5% aqueous formic acid solution and solvent B- acetonitrile/methanol 80:20.
(§2) The eluants were filtered through a 0.45-µm pore size polyvinylidene difluoride membrane […]
(§3) The following gradients programs were used: […]

[2] = metabolic stability in rat liver microsomes (RLM); type: in vitro ADME; conditions: RLM, 50 μM substrate, with NADPH; for Residual microsomal substrate (t=60 min): LC–UV
Experimental: Twelve esters were prepared (see the Experimental Section for their synthesis and the Supporting Information for chromatographic methods) and evaluated in terms of metabolic stability. For this task, a combined approach based on microsomal and plasmatic stability assays was exploited considering the relevance of the plasmatic and hepatic tissues in esterase activity. Microsomal stability of the selected esters was evaluated by monitoring the disappearance of the substrate incubated in rat liver microsomes (RLM) at 50 μM concentration, in the presence of NADPH. In Table 4, the percentage of the remaining substrate, after incubation (t=60 min), with respect to the initial amount is reported. Overall, the compounds underwent a relevant metabolic transformation, and the substrate depletion ranged from 0 (for 76) to 100 % (for 70). This is mainly due to hydrolysis of the ester function, whereas the metabolites arising from the oxidation catalyzed by the NADPH‐dependent monooxygenase system were negligible from a quantitative point of view. Indeed, the main metabolite formed during the incubation of the esters was corresponding carboxyl derivative 37. […] Moreover, whereas CH2‐pyridin‐4‐yl ester 70 was completely metabolized, corresponding benzyl derivative 65 and piperonyl derivative 72 were more hydrolytically stable, and their residual substrates were 53 and 83 %, respectively. The hydrolytic stability of the selected esters was also evaluated by monitoring the depletion of the substrate incubated at a 50 μM concentration in mouse plasma over a period of 30 min. As expected, the plasmatic metabolic fate of the esters was characterized by the formation of 37 as the only metabolite (see Figure S4). The rate constant k [min^−1], derived for the substrate peak area versus time curve (single‐exponential decay equation—GraphPad Prism software, Inc., San Diego, CA (USA); see Figure S5) was used to calculate the in vitro half‐life t 1/2 [min], and the values are reported in Table 4.
Metabolic stability of PI3K inhibitors in RLM fraction
The standard incubation mixture (500 µL final volume), in 1.5 mL Eppendorf tubes, was carried out in a 50 mM TRIS-HCl buffer (pH 7.4) containing 3.3 mM MgCl2, 1.3 mM NADPNa2, 3.3 mM glucose 6-phosphate, 0.4 Units/mL glucose 6-phosphate dehydrogenase (NADPH regenerating system), acetonitrile as cosolvent (1% of final volume) and 50 µM of substrate. After pre-equilibration of the mixture, an appropriate volume of rat microsomal suspension was added to give a final protein concentration of 1 mg/mL. The mixture was shaken for 1 hour at 37°C and the reaction was quenched by diluting the samples with 500 µL of ice-cold acetonitrile. The samples were then centrifuged at 13,000 rpm for 10 min, and the supernatant was directly injected onto the HPLC column for analysis. Control incubations were performed without microsomes. […]
as §1, §2, §3

PC3 cells = assay: PC3 cell proliferation (MTT); type: cell-based; design: key to Cell proliferation: active: Active: able to reduce proliferation to an extent greater than 50 %; inactive: able to reduce proliferation to an extent less than 50 %; conditions: PC3 cells, 10 μM of each prodrug
Experimental: The biological activity of each prodrug was tested by analyzing their ability to decrease PC3 proliferation as a rapid test to evaluate the PI3Ks inhibitory activity after hydrolysis in a cell‐based assay. […] The choice of using such a cut‐off was due to the intent to identify rapidly which prodrug could be hydrolyzed in the assay to release the active compound. As expected, a good correlation between rate of hydrolysis and cellular activity was observed, and esters 64–68 and 70–73 were determined to be good candidates for topical use. We decided to focus our attention on ester 64, as its half‐life was a good compromise for a prodrug. The EC50 value of this ester was then evaluated on PC3 cells, and a value of (2.3±0.8) μM was obtained.
Cell proliferation: PC3 cell proliferation was measured with a 3‐(4,5‐dimethyl thiazol‐2‐yl)‐2,5‐diphenyltetrazolium bromide (MTT)‐based colorimetric assay (#11 465 007 001 Roche Diagnostic GmbH, Germany). PC3 cells were seeded in a 96‐well plate at a concentration of 10^4 cells mL^−1. PC3 cells were treated for 72 h with increasing concentrations of 64, and MTT was added. After ON solubilization of the MTT metabolite, formazan, the absorbance (λ=550–600 nm absorbance, with a reference wavelength of 650 nm) of each well was read in a multi‐well reader (Glomax multi detection system, Promega, model number 9301‐010). The percentage of proliferating cells was calculated by relating each absolute value to the control intended as PC3 cells treated with DMSO alone. An IC50 value was then derived by plotting all data on a dose–response curve (Graph Pad software) by using nonlinear regression fit (equation [log agonist] versus response).

Structure (SMILES)	half-life at 50 µM [1]	Residual microsomal substrate (t=60 min) [2]	hydrolysis by mouse plasma hydrolases ([1]; 30 min)	substrate depletion ([2]; 60 min)	Cell proliferation (PC3 cells)
O=C(OCc1ccccc1)c1cccc(Cn2cc(-c3cccc4c(=O)cc(N5CCOCC5)[nH]c34)nn2)c1 [Compound 65, Benzyl 3‐{[4‐(2‐morpholino‐4‐oxo‐1,4‐dihydroquinolin‐8‐yl)‐1H‐1,2,3‐triazol‐1‐yl]methyl}benzoate]	< 1 min	53%			active
CC(C)OC(=O)c1cccc(Cn2cc(-c3cccc4c(=O)cc(N5CCOCC5)[nH]c34)nn2)c1 [Compound 66, Isopropyl 3‐{[4‐(2‐morpholino‐4‐oxo‐1,4‐dihydroquinolin‐8‐yl)‐1H‐1,2,3‐triazol‐1‐yl]methyl}benzoate]	15.1 min	16%			active
CCOC(=O)c1cccc(Cn2cc(-c3cccc4c(=O)cc(N5CCOCC5)[nH]c34)nn2)c1 [Compound 67, Ethyl 3‐{[4‐(2‐morpholino‐4‐oxo‐1,4‐dihydroquinolin‐8‐yl)‐1H‐1,2,3‐triazol‐1‐yl]methyl}benzoate]		24%			active
CCCCOC(=O)c1cccc(Cn2cc(-c3cccc4c(=O)cc(N5CCOCC5)[nH]c34)nn2)c1 [Compound 68, Butyl 3‐{[4‐(2‐morpholino‐4‐oxo‐1,4‐dihydroquinolin‐8‐yl)‐1H‐1,2,3‐triazol‐1‐yl]methyl}benzoate]	< 1 min	53%			active
CC(C)(C)OC(=O)c1cccc(Cn2cc(-c3cccc4c(=O)cc(N5CCOCC5)[nH]c34)nn2)c1 [Compound 69, tert ‐Butyl 3‐{[4‐(2‐morpholino‐4‐oxo‐1,4‐dihydroquinolin‐8‐yl)‐1H‐1,2,3‐triazol‐1‐yl]methyl}benzoate]		79%	inert to the mouse plasma hydrolases		inactive

The next lines start with results.

half-life at 50 µM [1]	Residual microsomal substrate (t=60 min) [2]	hydrolysis by mouse plasma hydrolases ([1]; 30 min)	substrate depletion ([2]; 60 min)	Structure (SMILES)	Cell proliferation (PC3 cells)
< 1 min	0%		100%	O=C(OCc1ccncc1)c1cccc(Cn2cc(-c3cccc4c(=O)cc(N5CCOCC5)[nH]c34)nn2)c1 [Compound 70, Pyridin‐4‐ylmethyl 3‐{[4‐(2‐morpholino‐4‐oxo‐1,4‐dihydroquinolin‐8‐yl)‐1H‐1,2,3‐triazol‐1‐yl]methyl}benzoate]	active
2.5 min	18%			O=C(OCCN1CCOCC1)c1cccc(Cn2cc(-c3cccc4c(=O)cc(N5CCOCC5)[nH]c34)nn2)c1 [Compound 71, 2‐Morpholinoethyl 3‐{[4‐(2‐morpholino‐4‐oxo‐1,4‐dihydroquinolin‐8‐yl)‐1H‐1,2,3‐triazol‐1‐yl]methyl}benzoate]	active
< 1 min	83%			O=C(OCc1ccc2c(c1)OCO2)c1cccc(Cn2cc(-c3cccc4c(=O)cc(N5CCOCC5)[nH]c34)nn2)c1 [Compound 72, Benzo[d][1,3]dioxol‐5‐yl methyl 3‐{[4‐(2‐morpholino‐4‐oxo‐1,4‐dihydroquinolin‐8‐yl)‐1H‐1,2,3‐triazol‐1‐yl]methyl}benzoate]	active
< 1 min	39%			CC(C)CCOC(=O)c1cccc(Cn2cc(-c3cccc4c(=O)cc(N5CCOCC5)[nH]c34)nn2)c1 [Compound 73, Isopentyl 3‐{[4‐(2‐morpholino‐4‐oxo‐1,4‐dihydroquinolin‐8‐yl)‐1H‐1,2,3‐triazol‐1‐yl]methyl}benzoate]	active
4.2 min	60%			CCCC(C)OC(=O)c1cccc(Cn2cc(-c3cccc4c(=O)cc(N5CCOCC5)[nH]c34)nn2)c1 (stereo not drawn) [Compound 74, Pentan‐2‐yl 3‐{[4‐(2‐morpholino‐4‐oxo‐1,4‐dihydroquinolin‐8‐yl)‐1H‐1,2,3‐triazol‐1‐yl]methyl}benzoate]	inactive
